One data set has as its system PC-3. The experiment in a line: Cell growth inhibition (resazurin), PC-3. The format is cell-based, human. The conditions noted are these: for cytotoxicity against PC-3, in words: from EC50 values.
The test system of another data set is NF-κB. The data set is described as follows: NF-κB-mediated luciferase reporter gene assay, HEK293 NF-κB/Luc cells, TNF-α stimulation. The format is cell-based, human. The conditions noted are these: for effect on luciferase activity upon TNF-α stimulation, in words: pretreatment of NF-κB/Luc 293 cells; for EC50: read-out: EC50, NF-κB-mediated luciferase reporter gene assay, Table 5, values in nM, 1 hr pretreatment, TNF-α 6 hr. A digest of the protocol:
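Cells seeded at 1.5×10^4/well in phenol-red free DMEM, pretreated 1 h with 8-point half-log compound dilutions (DMSO stocks), then stimulated with TNF-α (10 μl of 50 ng/ml solution) for 6 h. Luciferase read as RLU after 10 min with Steady Lite reagent at room temperature.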
(A reporter such as luciferase makes a cellular process visible.)

In data set [1] the test system is LeTx-mediated cytotoxicity of RAW 264.7 cells. The conditions noted are these: read-out: EC50 for inhibition of RAW 264.7 cell cytotoxicity mediated by anthrax lethal toxin; 45 minute preincubation, 1 μg/ml LF and PA, six hours; maximum concentration 330 nM.
Another data set relates to U266. The experiment in a line: Cell growth inhibition (resazurin), U266. Conditions: for cytotoxicity against U266, in words: from EC50 values; for EC50: 48 hours drug exposure. For orientation: Resazurin is reduced to fluorescent resorufin, in cell work by metabolically active cells.
The subject of a further data set is HT-29. The data set is described as follows: Cell growth inhibition (resazurin), HT-29. The conditions noted are these: for cytotoxicity against HT-29, in words: from EC50 values.
A further data set has as its system OVCAR-3. The experiment in a line: Cell growth inhibition (resazurin), OVCAR-3. The conditions noted are these: for cytotoxicity against OVCAR-3, in words: from EC50 values.
Another data set relates to B16-F10. The data set is described as follows: Cell growth inhibition (resazurin), B16-F10. Conditions: for cytotoxicity against B16-F10, in words: from EC50 values.
In another data set the test system is NCI-H292. The data set is described as follows: Cell growth inhibition (resazurin), NCI-H292. The conditions noted are these: for cytotoxicity against NCI-H292, in words: from EC50 values.
A further data set deals with RPMI 8226. The experiment in a line: Cell growth inhibition (resazurin), RPMI 8226. Conditions: for cytotoxicity against RPMI 8226, in words: from EC50 values; for EC50: 48 hours drug exposure.
A further data set has as its system MDA-MB-231. The data set is described as follows: Cell growth inhibition (resazurin), MDA-MB-231. Conditions: for cytotoxicity against MDA-MB-231, in words: from EC50 values.
In data set [2] the target is T1, caspase-like activity of purified rabbit muscle 20S proteasome (Oryctolagus cuniculus, UniProt A0A5F9DQW2).
T1 sequence (A0A5F9DQW2 1-212): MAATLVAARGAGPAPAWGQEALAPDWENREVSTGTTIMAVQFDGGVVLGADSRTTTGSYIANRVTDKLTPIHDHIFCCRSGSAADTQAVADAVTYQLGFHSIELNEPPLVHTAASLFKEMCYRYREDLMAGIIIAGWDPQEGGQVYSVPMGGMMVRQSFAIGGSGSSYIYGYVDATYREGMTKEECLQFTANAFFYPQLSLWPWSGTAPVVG
The experiment in a line: In vitro inhibition of 20S proteasome caspase-like activity (Z-LLE-AMC).

In data set [3] the target is T2, trypsin-like activity of purified rabbit muscle 20S proteasome (Oryctolagus cuniculus, UniProt G1SWK8).
T2 sequence (G1SWK8 1-271): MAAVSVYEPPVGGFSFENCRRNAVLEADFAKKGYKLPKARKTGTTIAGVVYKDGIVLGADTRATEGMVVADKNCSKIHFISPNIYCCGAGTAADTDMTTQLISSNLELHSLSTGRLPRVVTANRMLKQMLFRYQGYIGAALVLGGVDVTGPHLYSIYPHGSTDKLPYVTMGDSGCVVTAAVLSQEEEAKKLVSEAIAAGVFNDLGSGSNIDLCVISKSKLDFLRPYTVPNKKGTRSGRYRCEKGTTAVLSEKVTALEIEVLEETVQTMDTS
The data set is described as follows: In vitro inhibition of 20S proteasome trypsin-like activity (Boc-LRR-AMC). The conditions noted are these: under the conditions tested.

The target in data set [4] is T3, chymotrypsin-like activity of purified rabbit muscle 20S proteasome (Oryctolagus cuniculus, UniProt G1T4Q9).
T3 sequence (G1T4Q9 1-263): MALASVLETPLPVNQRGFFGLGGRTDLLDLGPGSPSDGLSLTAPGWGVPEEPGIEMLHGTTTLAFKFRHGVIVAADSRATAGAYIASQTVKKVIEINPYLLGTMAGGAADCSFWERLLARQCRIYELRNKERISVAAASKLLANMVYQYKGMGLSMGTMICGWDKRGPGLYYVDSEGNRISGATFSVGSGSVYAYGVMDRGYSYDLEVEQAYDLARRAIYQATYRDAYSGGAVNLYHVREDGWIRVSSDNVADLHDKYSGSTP
The experiment in a line: In vitro inhibition of 20S proteasome chymotrypsin-like activity (suc-LLVY-AMC). The conditions noted are these: EC50 Chymotrypsin-like, Table 6, values in nM.

Data set [5] addresses T2, trypsin-like activity of purified rabbit muscle 20S proteasome. The experiment in a line: biochemical.
Another data set in a line: Stability in solution. The format is physicochemical. The conditions noted are these: converted to VI-1B; mixture of II-48 and VI-1B in the ratio of 7:3. The method, then:
The reaction mixture was stirred at room temperature for about 3 hours. The solvent was evaporated from the reaction mixture to yield the compound of Formula II-48, which was purified by reversed phase HPLC using Ace 5u C18 column (150 mm×22 mm ID) with a solvent gradient of 10% to 70% H2O/Acetonitrile over 15 min, 70 to 100% Acetonitrile over 5 min, holding at 100% Acetonitrile for 4 min, at a flow rate of 14.5 ml/min. Diode array detector was used to monitor the purification process. Compound II-48 (10 mg) eluted as a pure compound at 8.255 min. […] Compound VI-1B: UV (Acetonitrile/H2O) λmax 235 (sh) nm; ESMS, m/z 585.2 (M+H)^−.

Where [6] appears, read: read-out: EC50 against U266, Table 1.
Where [7] appears, read: read-out: EC50 against RPMI 8226, Table 1.
Where [8] appears, read: read-out: RPMI 8226 EC50, Table 2, mean ± SD where n≥3.

“And” between values parts separate entries of the source, which are not always exact repeats. Equal values may be shown once. Read-outs that look alike come from different tables or passages of the source.

`C[C@@]12OC(=O)[C@]1([C@@H](O)[C@H]1CCCC3OC31)NC(=O)[C@@H]2CCCl` (single isomer, unassigned) [Formula II-5B]: the concentration giving a half-maximal response (EC50) (as a rule, the midpoint of the concentration-response curve) with PC-3 (Table 1, 48 hours drug exposure, mean ± SD where n≥3, read-out: EC50 against PC-3) is 1330 nM; in the data set with NF-κB it was 279 nM; in data set [1] it was 45 nM; in the data set on U266 (setting [6]), 111 nM; with U266 (read-out: U266 EC50, Table 2), 118 nM and 111 nM; in the data set with HT-29 (read-out: EC50 against HT-29, Table 1, 48 hours drug exposure, mean ± SD where n≥3), 1210 nM. Moreover, the EC50 with B16-F10 (read-out: EC50 against B16-F10, Table 1, 48 hours drug exposure, mean ± SD where n≥3) was 1140 nM; in the data set on NCI-H292 (read-out: EC50 against NCI-H292, Table 1, 48 hours drug exposure, mean ± SD where n≥3), 1250 nM; in the data set on RPMI 8226 (setting [7]), 328 nM; in the data set on RPMI 8226 (setting [8]), 326 nM and 328 nM; with MDA-MB-231 (read-out: EC50 against MDA-MB-231, Table 1, 48 hours drug exposure, mean ± SD where n≥3), 957 nM; in data set [2] (EC50 Caspase-like, Table 6, values in μM), 3.8 µM and 2.9 µM. The EC50 was 0.956 to 8.7 µM in data set [2] (EC50 values, caspase-like activity, range in mixed units, summary of Table 6, range from nM to μM) and 85 nM in data set [4]. For the same compound, the “cytotoxicity against PC-3, in words” value in the data set on PC-3 is “cytotoxic”. For the same compound, the “effect on luciferase activity upon TNF-α stimulation, in words” value with NF-κB is given as “dose-dependent decrease”. Besides, the “cytotoxicity against U266, in words” value with U266 is “cytotoxic”. Also, the “cytotoxicity against HT-29, in words” value in the data set on HT-29 is listed as “cytotoxic”. In addition, the “cytotoxicity against OVCAR-3, in words” value with OVCAR-3 was “cytotoxic”. In addition, the “cytotoxicity against B16-F10, in words” value with B16-F10 is reported as “cytotoxic”. The “cytotoxicity against NCI-H292, in words” value in the data set with NCI-H292 is recorded as “cytotoxic”. Further, in the data set with RPMI 8226, the “cytotoxicity against RPMI 8226, in words” value is reported as “cytotoxic”. Besides, in the data set with MDA-MB-231, the “cytotoxicity against MDA-MB-231, in words” value is “cytotoxic”. Moreover, in data set [3], the “inhibition of the trypsin-like activity of the 20S proteasome, in words” value is on record as “able to inhibit”.
Turning to `C[C@@]12OC(=O)[C@]1([C@@H](O)[C@H]1CCCC3OC31)NC(=O)[C@@H]2CCCl` (single isomer, unassigned) [Formula II-5A], the “cytotoxicity against PC-3, in words” value in the data set with PC-3 was “cytotoxic”. Besides, the “effect on luciferase activity upon TNF-α stimulation, in words” value in the data set with NF-κB is “dose-dependent decrease”. In addition, the EC50 is 33 nM in the data set on NF-κB; 3 nM in [1]; 90 nM in data set [5]; 9 nM with U266 (setting [6]); 10 nM and 9 nM in the data set on U266 (read-out: U266 EC50, Table 2); 64 nM with OVCAR-3 (read-out: EC50 against OVCAR-3, Table 1, 48 hours drug exposure). Besides, the EC50 is 29 nM in the data set with RPMI 8226 (setting [7]); 36 nM and 29 nM in the data set with RPMI 8226 (setting [8]); 0.535 µM and 0.438 µM in data set [2] (EC50 Caspase-like, Table 6, values in nM); 0.213 to 0.85 µM in [2] (EC50 values, caspase-like activity, summary of Table 6); 6 nM and 7 nM in [4]. Besides, the “cytotoxicity against U266, in words” value with U266 is on record as “cytotoxic”. The “cytotoxicity against HT-29, in words” value in the data set on HT-29 is “cytotoxic”. In addition, in the data set on OVCAR-3, the “cytotoxicity against OVCAR-3, in words” value is given as “cytotoxic”. Moreover, in the data set with B16-F10, the “cytotoxicity against B16-F10, in words” value is recorded as “cytotoxic”. In addition, the “cytotoxicity against NCI-H292, in words” value in the data set on NCI-H292 is recorded as “cytotoxic”. In addition, the “cytotoxicity against RPMI 8226, in words” value with RPMI 8226 is “cytotoxic”. Moreover, the “cytotoxicity against MDA-MB-231, in words” value in the data set on MDA-MB-231 was “cytotoxic”. Moreover, the “inhibition of the trypsin-like activity of the 20S proteasome, in words” value in [3] is “able to inhibit”.
As to `C[C@]1(O)[C@@H](CCCl)C(=O)N[C@]1(C(=O)SCC(NC(=O)CCC(N)C(=O)O)C(=O)NCC(=O)O)[C@@H](O)[C@@H]1C=CCCC1` (stereo partly shown) [Formula II-48], the stability in solution entry in the data set “Stability in solution” is on record as “unstable in solution”.

The values above are taken from patent US7544814B2, “[3.2.0] Heterocyclic compounds and methods of using the same” (Nereus Pharmaceuticals, Inc., priority 2004, dated 2009).
